The results in this text go back to patent US11565022B2, “Therapy for post-traumatic osteoarthritis” (University of Iowa Research Foundation, priority 2015, dated 2023).

For the assay, the system named is complex I of the electron transport chain in chondrocytes. The assay can be described thus: complex I activity in the presence or absence of amobarbital (FIG. 4). The format is biochemical.

For `CCC1(CCC(C)C)C(=O)NC(=O)NC1=O` [amobarbital], the “biochemical activity of complex I of the electron transport chain” value is “directly inhibits”.
